In the supplement of paper PMC10307832:

Assays:
Assay in all cases: relative viability (nuclei count vs DMSO), 5 days (fraction); higher = more cells survive
IU1-47 + Palbociclib = compound: CC1=CC(=C(N1C2=CC=C(C=C2)Cl)C)C(=O)CN3CCCCC3 [IU1-47] + CC(=O)c1c(C)c2cnc(Nc3ccc(N4CCNCC4)cn3)nc2n(C2CCCC2)c1=O [Palbociclib] (partner 0.5 µM)
Procedure, shortened: (§1)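 Lung cancer cell lines in 1536-well plates were dosed by pin tool the day after seeding, either with one drug alone or with a fixed anchor-drug dose plus five library-drug doses (not always all listed) in √10 steps. After 5 days, cells were fixed and their nuclei stained in one step (final 0.05% Triton X-100, 1% formaldehyde, 1 ug/ml Hoechst), then counted on 4× images. Relative viability is the nuclei count in treated wells divided by that in vehicle wells. Values are medians of duplicate plates.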

IU1-47 + Pemetrexed = compound: CC1=CC(=C(N1C2=CC=C(C=C2)Cl)C)C(=O)CN3CCCCC3 [IU1-47] + Nc1nc2[nH]cc(CCc3ccc(C(=O)N[C@@H](CCC(=O)O)C(=O)O)cc3)c2c(=O)[nH]1 [Pemetrexed] (partner 0.2 µM)
Procedure, shortened: as §1

FG-4592 + Alpelisib = compound: Cc1nc(C(=O)NCC(=O)O)c(O)c2ccc(Oc3ccccc3)cc12 [FG-4592] + Cc1nc(NC(=O)N2CCC[C@H]2C(N)=O)sc1-c1ccnc(C(C)(C)C(F)(F)F)c1 [Alpelisib] (partner 2 µM)
Procedure, shortened: as §1

FG-4592 + Decitabine = compound: Cc1nc(C(=O)NCC(=O)O)c(O)c2ccc(Oc3ccccc3)cc12 [FG-4592] + Nc1ncn([C@H]2C[C@H](O)[C@@H](CO)O2)c(=O)n1 [Decitabine] (partner 2 µM)
Procedure, shortened: as §1

| Cell Line | relative viability (IU1-47 + Palbociclib; first compound 0.08 µM) | relative viability (IU1-47 + Palbociclib; first compound 0.253 µM) | relative viability (IU1-47 + Palbociclib; first compound 0.8 µM) | relative viability (IU1-47 + Palbociclib; first compound 2.53 µM) | relative viability (IU1-47 + Palbociclib; first compound 8 µM) | relative viability (IU1-47 + Pemetrexed; first compound 0.08 µM) | relative viability (IU1-47 + Pemetrexed; first compound 0.253 µM) | relative viability (IU1-47 + Pemetrexed; first compound 0.8 µM) | relative viability (IU1-47 + Pemetrexed; first compound 2.53 µM) | relative viability (IU1-47 + Pemetrexed; first compound 8 µM) | relative viability (FG-4592 + Alpelisib; first compound 0.08 µM) | relative viability (FG-4592 + Alpelisib; first compound 0.253 µM) | relative viability (FG-4592 + Alpelisib; first compound 0.8 µM) | relative viability (FG-4592 + Alpelisib; first compound 2.53 µM) | relative viability (FG-4592 + Alpelisib; first compound 8 µM) | relative viability (FG-4592 + Decitabine; first compound 0.08 µM) | relative viability (FG-4592 + Decitabine; first compound 0.253 µM) | relative viability (FG-4592 + Decitabine; first compound 0.8 µM) | relative viability (FG-4592 + Decitabine; first compound 2.53 µM) | relative viability (FG-4592 + Decitabine; first compound 8 µM) |
| --- | --- | --- | --- | --- | --- | --- | --- | --- | --- | --- | --- | --- | --- | --- | --- | --- | --- | --- | --- | --- |
| NCI-H2023 | 0.464 | 0.45 | 0.421 | 0.47 | 0.344 | 0.22 | 0.232 | 0.246 | 0.208 | 0.204 | 0.683 | 0.569 | 0.722 | 0.631 | 0.534 | 0.231 | 0.209 | 0.222 | 0.243 | 0.203 |
| COR-L 105 | 0.479 | 0.449 | 0.399 | 0.388 | 0.438 | 1.12 | 1.17 | 0.93 | 1.12 | 1.02 | 1.07 | 0.91 | 0.981 | 0.732 | 1.02 | 0.649 | 0.691 | 0.597 | 0.621 | 0.641 |
| RERF-LC-KJ | 1.32 | 1.18 | 1.04 | 1.16 | 1.07 | 0.503 | 0.454 | 0.523 | 0.389 | 0.479 | 0.804 | 0.749 | 0.723 | 0.651 | 0.774 | 0.811 | 0.697 | 0.76 | 0.81 | 0.667 |
| LXF-289 | 0.634 | 0.679 | 0.603 | 0.58 | 0.619 | 0.888 | 0.886 | 0.851 | 0.945 | 0.856 | 0.974 | 0.963 | 1.06 | 1.05 | 1.09 | 0.425 | 0.386 | 0.35 | 0.378 | 0.305 |
| PC-14 | 0.547 | 0.69 | 0.635 | 0.675 | 0.419 | 0.169 | 0.129 | 0.171 | 0.153 | 0.144 | 0.979 | 1 | 0.988 | 0.855 | 0.956 | 0.193 | 0.243 | 0.213 | 0.195 | 0.226 |
| NCI-H650 | 0.361 | 0.332 | 0.312 | 0.373 | 0.288 | 1.01 | 1.1 | 0.965 | 0.878 | 1 | 1.03 | 1.01 | 1.04 | 0.939 | 0.881 | 0.314 | 0.275 | 0.301 | 0.296 | 0.306 |
| NCI-H1666 | 0.695 | 0.652 | 0.695 | 0.682 | 0.63 | 0.894 | 0.839 | 0.888 | 0.873 | 0.841 | 0.866 | 0.862 | 0.953 | 0.886 | 0.644 | 0.836 | 0.724 | 0.867 | 0.711 | 0.759 |
| NCI-H2085 | 0.444 | 0.458 | 0.488 | 0.463 | 0.496 | 0.925 | 0.818 | 0.846 | 0.83 | 0.885 | 0.911 | 0.889 | 0.967 | 1.04 | 0.935 | 0.554 | 0.493 | 0.51 | 0.597 | 0.545 |
| NCI-H1734 | 0.353 | 0.355 | 0.314 | 0.367 | 0.322 | 0.454 | 0.415 | 0.446 | 0.443 | 0.463 | 0.645 | 0.685 | 0.681 | 0.686 | 0.731 | 0.519 | 0.463 | 0.53 | 0.489 | 0.458 |
| NCI-H2126 | 0.392 | 0.352 | 0.359 | 0.364 | 0.395 | 0.69 | 0.741 | 0.704 | 0.49 | 0.733 | 0.744 | 0.787 | 0.661 | 0.769 | 0.69 | 0.54 | 0.541 | 0.543 | 0.578 | 0.578 |
| EMC-BAC-2 | 0.521 | 0.541 | 0.512 | 0.507 | 0.519 | 0.458 | 0.436 | 0.556 | 0.459 | 0.468 | 0.745 | 0.718 | 0.705 | 0.764 | 0.713 | 1.01 | 0.962 |  | 1.02 | 0.942 |
| NCI-H1993 | 0.854 | 0.698 | 0.659 | 0.558 | 0.513 | 0.631 | 0.588 | 0.672 | 0.346 | 0.482 | 0.689 | 0.614 | 0.622 | 0.647 | 0.669 | 0.695 | 0.602 |  | 0.665 | 0.572 |
| NCI-H520 | 0.218 | 0.227 | 0.223 | 0.204 | 0.237 | 0.548 | 0.711 | 0.831 | 0.847 | 0.577 | 0.908 | 0.972 | 0.952 | 0.93 | 0.74 | 0.454 | 0.443 | 0.493 | 0.577 | 0.434 |
| NCI-H647 | 0.38 | 0.416 | 0.416 | 0.419 | 0.42 | 0.155 | 0.189 | 0.182 | 0.166 | 0.159 | 1.24 | 1.07 | 1.17 | 1.24 | 0.796 | 0.347 | 0.326 | 0.341 | 0.372 | 0.227 |
| NCI-H1792 | 0.727 | 0.643 | 0.707 | 0.44 | 0.544 | 0.529 | 0.817 | 0.789 | 0.877 | 0.35 | 0.78 | 0.635 | 0.544 | 0.619 | 0.721 | 0.508 | 0.485 |  | 0.525 | 0.484 |
| SK-LU-1 | 0.387 | 0.411 | 0.445 | 0.4 | 0.378 | 0.981 | 1.05 | 1.03 | 1.02 | 0.887 | 1.02 | 0.925 | 1.07 |  | 0.917 | 0.66 | 0.55 | 0.671 | 0.582 | 0.476 |
| NCI-H2009 | 0.225 | 0.229 | 0.208 | 0.21 | 0.231 | 1.1 | 1.05 | 1.01 | 1.08 | 1.05 | 1.18 | 1.06 | 1.19 | 1.15 | 1.22 | 0.406 | 0.339 | 0.381 | 0.343 | 0.349 |
| LOU-NH91 | 0.524 | 0.533 | 0.539 | 0.431 | 0.507 | 0.389 | 0.386 | 0.526 | 0.38 | 0.35 | 0.698 | 0.614 | 0.613 | 0.719 | 0.724 | 0.861 | 0.802 | 0.814 | 0.802 | 0.812 |
| NCI-H2405 | 0.539 | 0.593 | 0.531 | 0.539 | 0.506 | 1.05 | 1.1 | 1.05 | 1.02 | 1.09 |  | 0.399 | 0.655 | 0.638 | 0.715 | 0.69 | 0.714 | 0.702 | 0.688 | 0.671 |
| LCLC-97TM1 | 0.281 | 0.229 | 0.218 |  | 0.297 | 0.173 | 0.15 | 0.154 |  | 0.172 | 0.25 | 0.214 | 0.167 |  | 0.29 | 0.218 | 0.209 |  | 0.217 | 0.173 |
| H3255 | 0.351 | 0.329 | 0.331 | 0.289 | 0.322 | 0.624 | 0.544 | 0.63 | 0.605 | 0.511 | 0.634 | 0.664 | 0.67 | 0.791 | 0.81 | 0.702 | 0.585 | 0.6 | 0.592 | 0.557 |
| SK-MES-1 | 0.282 | 0.332 | 0.292 | 0.34 | 0.273 | 0.95 | 1.05 | 0.97 | 0.993 | 0.854 | 0.953 | 0.892 | 0.85 | 0.853 | 0.773 | 0.369 | 0.424 | 0.419 | 0.414 | 0.385 |
| NCI-H1437 | 0.284 | 0.281 | 0.344 | 0.282 | 0.294 | 0.336 | 0.336 | 0.314 | 0.308 | 0.311 | 0.997 | 0.958 | 1.01 | 1.05 | 0.706 | 0.576 | 0.512 | 0.606 | 0.632 | 0.534 |
| LU99A | 0.373 | 0.43 | 0.399 | 0.496 | 0.372 | 0.178 | 0.227 | 0.155 | 0.187 | 0.191 | 0.497 | 0.492 | 0.402 | 0.579 | 0.532 | 0.842 | 0.796 |  | 0.906 | 0.795 |
| HCC-827 | 0.553 | 0.497 | 0.534 | 0.551 | 0.535 | 0.26 | 0.282 | 0.275 | 0.291 | 0.26 | 0.948 | 0.945 | 0.952 | 0.951 | 0.992 | 0.376 | 0.28 | 0.319 | 0.334 | 0.328 |
| LK-2 | 1.04 | 1.03 | 0.568 | 0.68 | 0.559 | 0.327 | 0.308 | 0.3 | 0.306 | 0.156 |  | 1.05 |  | 0.929 | 1.03 | 0.273 | 0.272 | 0.274 | 0.371 | 0.295 |
| HCC-366 | 0.409 | 0.421 | 0.349 | 0.546 | 0.327 | 0.176 | 0.157 | 0.192 | 0.211 | 0.19 | 0.285 | 0.386 | 0.408 | 0.377 | 0.392 | 0.359 | 0.347 | 0.324 | 0.383 | 0.308 |
